# Like-named read-outs stand apart in the source and are kept apart here.
# Columns and labels:
# [1] = mouse, in vivo; for Ratios of the concentration of porphyrins in liver to kidney / Ratios of the concentration of porphyrins in tumor to muscle: iv
# Protocol: Measured concentrations are averages for two mice.
# Biodistribution (liver, kidney, muscle and tumor) of the four manganese porphyrins was measured by absorption spectroscopy of ammonia/methanol mixtures and expressed as μg metalloporphyrin per gram of tissue (wet weight). Quantitation was based upon the extinction coefficient for each porphyrin as predetermined in the extraction solutions.
# SMT-F (spontaneous mammary carcinoma) was maintained in the laboratory on a biweekly schedule in which 1 mm^3 pieces of tumor were implanted in the flank of DBA/2HaRos-d^+Ha mice. Porphyrins were delivered by intravenous injection in the tail vein.
# The distribution of each porphyrin in kidney, liver, muscle and tumor was determined at 1 and 24 hours post injection.
# [2] = tested on: SMT-F (spontaneous mammary carcinoma); assay: Relaxivity in excised tumor tissue at 10.7 MHz; type: in vivo, DBA/2HaRos-d^+Ha mice; settings: 24 hours post injection; for Relaxivity of tumors excised from mice (relaxation rate of treated minus untreated tissue divided by porphyrin concentration in tumor tissue): 100 mg/kg, 10.7 MHz, 37° C.
# Protocol: Relaxation and biodistribution measurements were carried out using procedures known to those skilled in the art, e.g., Fiel et. al., supra. Briefly, the longitudinal relaxation time (T1) for excised tissue was measured at 37° C., with a Praxis II™ relaxometer (Praxis Corporation, San Antonio, Tex.) operating at 10.7 MHz and employing a saturation recovery pulse sequence.
# Relaxivity in tumor tissue was measured for each porphyrin on excised tissue at 10.7 MHz, 24 hours post injection of a 100 mg/kg dose (table 3).
# *Expressed as the relaxation rate of tissue from treated animals (24 hrs)
# minus the relaxation rate of tissue from untreated animal (control)
# divided by the concentration of porphyrin in the tumor tissue.
# [3] = tested on: SMT-F (spontaneous mammary carcinoma); assay: Magnetic resonance imaging of tumor bearing mouse, signal intensity; type: in vivo, DBA/2HaRos-d^+Ha mice; settings: for tumor appearance in MR image / kidney signal in MR image / Normalized Signal Intensity, confidence interval / Normalized Signal Intensity, range / Normalized Signal Intensity, mean ± SD: 100 mg/kg; for kidney signal in MR image: region of the pelvis; for Normalized Signal Intensity, confidence interval: 99% (t test); for Normalized Signal Intensity, range: control 0.652-0.701; for Normalized Signal Intensity, mean ± SD: control 0.685 ± .015
# Protocol: Control (upper left), 1 hour post injection (100 mg/kg) of Mn(III)TPPS3 (upper right), and 24 hours post injection (lower left). […] Image intensity working standards (top to bottom) 28 mM CuSO4 in 1N HCl, 5 mM GdDTPA in isotonic saline and baby oil.
# Magnetic resonance images were made using a custom-built small animal (mouse) transmitter/receiving coil similar to the design of Henkelman et al., Small Animal Imaging With A Clinical Imager. Magn. Reson. Med. 4:61-66; 1987, and tuned to 15 MHz for use with a Diasonics™ 0.35 Tesla clinical scanner. Images were made using a TR of 500 msec. and a TE of 50 msec. with a slice thickness of 2.5 mm.
# Images were analyzed using a Hewlett Packard Vectra™ ES/12 personal computer with high resolution VGA graphics after digitization via a Dage 70™ camera with Vidicon tube utilizing a Matrox™ MVP AT image capture/display board. Signal intensity measurements were made from selected areas of interest (AOI) using Image-Pro II™ software (Media Cybernetics, Silver Spring, MD). Any suitable similar apparatus and software can of course be used. Generally an entire section (image slice) of tumor was circumscribed using a free-form area of interest option. The area of interest was then represented by a histogram relating pixel frequency to gray level. Each gray level (0-255) was multiplied by its associated frequency. The resulting products were summed and divided by the area of interest in units of centimeter squared. The procedure was repeated three times to determine a mean value for the tumor at each time period. The same procedure was carried out for the midrange working standard (5 mM Gd DTPA).
# The visual differences (intensity) noted between control and treated (FIG. 2) were quantitated using mean intensity values normalized to corresponding working standards. The results (table 4) indicate that differences between control and enhanced and between one and 24 hrs are significant. Signal intensity measured at 24 hrs is 21% higher than control and 7% higher than the value determined at 1 hr. Note that this analysis ignores the fact that the increase in intensity at 24 hrs is actually concentrated into a relatively small area of the tumor by averaging over the entire section.
# L1210 cells = tested on: L1210 cells; parameters: unit not given beside the values; settings: mouse, 48 h
# [4] = Hydrophobicity of the porphyrins; type: physicochemical; settings: rank within the series of four
Compound,Ratios of the concentration of porphyrins in liver to kidney ([1]; 60 min),Ratios of the concentration of porphyrins in tumor to muscle ([1]; 60 min),Ratios of the concentration of porphyrins in liver to kidney ([1]; 1440 min),"tumor uptake, tumor/muscle ratio and relaxivity in tumor tissue, overall ranking [2]",Relaxivity of tumors excised from mice (relaxation rate of treated minus untreated tissue divided by porphyrin concentration in tumor tissue) [2],Ratios of the concentration of porphyrins in tumor to muscle ([1]; 1440 min),also measured
"O=S(=O)([O-])c1ccc(-c2c3nc(c(-c4ccc(S(=O)(=O)[O-])cc4)c4ccc([nH]4)c(-c4ccc(S(=O)(=O)[O-])cc4)c4nc(c(-c5ccccc5)c5ccc2[nH]5)C=C4)C=C3)cc1.[Mn+3] [MnTPPS3, manganese III meso-[tri(4-sulfonatophenyl)phenyl]porphine]",0.7,3.2,1.8,"superior to all others in regard to tumor uptake, tumor/muscle ratio and relaxivity in tumor tissue",–,–,"concentration in kidney [1]: high concentration found in the kidney at 1 hour; kidney clearance [1]: cleared rapidly and concentrated in the urine; tumor appearance in MR image ([3]; 1 hour post injection): the tumor appears somewhat brighter than the control, although it remains homogeneous; kidney signal in MR image ([3]; 1 hour post injection): high intensity signal in the region of the pelvis; kidney signal in MR image ([3]; 1 hour post injection, listed as Mn(III)TPPS3, 100 mg/kg): concentration of porphyrin in kidneys at 1 hour; Normalized Signal Intensity, confidence interval ([3]; 1 hr post injection, tumor): 0.769-0.784; Normalized Signal Intensity, range ([3]; 1 hr post injection, tumor): 0.766-0.780; Normalized Signal Intensity, mean ± SD ([3]; 1 hr post injection, tumor): 0.774 ± .006; tumor appearance in MR image ([3]; 24 hours post injection): the tumor appears very heterogeneous; tumor appearance in MR image ([3]; 24 hours post injection, listed as Mn(III)TPPS3, 100 mg/kg): heterogeneous signal enhancement in tumor at 24 hours; Normalized Signal Intensity, confidence interval ([3]; 24 hrs post injection, tumor): 0.815-0.841; Normalized Signal Intensity, range ([3]; 24 hrs post injection, tumor): 0.820-0.836; Normalized Signal Intensity, mean ± SD ([3]; 24 hrs post injection, tumor): 0.828 ± .007; Signal intensity increase over the value at 1 hr ([3]; 24 hrs vs 1 hr, tumor): 7%; Signal intensity increase over control ([3]; 24 hrs vs control, tumor): 21%; LD50 for L1210 cells in culture at day 2 (L1210 cells): 1010"
"O=S(=O)([O-])c1ccc(-c2c3nc(c(-c4ccc(S(=O)(=O)[O-])cc4)c4ccc([n-]4)c(-c4ccc(S(=O)(=O)[O-])cc4)c4ccc([n-]4)c(-c4ccc(S(=O)(=O)[O-])cc4)c4nc2C=C4)C=C3)cc1.[Mn+3] [MnTPPS4, manganese III meso-tetra(4-sulfonatophenyl)porphine, reference compound]",0.3,–,0.3,–,0.207 ± .004,–,hydrophobicity [4]: the least hydrophobic porphyrin
manganese III meso-[cis-di(4-sulfonatophenyl)diphenyl]porphine [MnTPPS2(cis)],6.4,2.8,5.5,superior to MnTPPS4,–,9.7,Relaxivity of tumors excised from mice (relaxation rate of treated minus untreated tissue divided by porphyrin concentration in tumor tissue) ([2]; measurement from one mouse): 0.361
manganese III meso-[trans-di(4-sulfonato-phenyl)diphenyl]porphine [MnTPPS2(trans)],4.4,2.3,3.8,superior to MnTPPS4,0.296 ± .045,11.6,–

# From patent US5397777A, “Meso poly(4-sulfonatophenyl) porphines as MRI image enhancing agents” (Health Research, Inc., priority 1993, dated 1995)
